The target of assay [1] is ligase IV (Homo sapiens, UniProt P49917). Description: Ligation assay, DNA ligase IV. Type of assay: biochemical. The source says: (§1) The ligation assay was done strictly following the assay protocol described in Xi Chen et. al, Cancer Res 2008; 68(9):3169-3177. The DNA molecules 52 mer (5′-3′), 28-mer (5′-3′) and 34-mer (5′-3′) were used to construct a double stranded nicked substrate for the ligase enzyme (FIG. 4). The 34-mer oligo was labelled with 32P-AMP to form a substrate for ligase and to form a ligase-AMP intermediate. During ligation, the ligase would transfer the AMP to the nick forming a phosphodiester bond and seal the nick. The ligated DNA molecule would be larger in size and run higher up on a 7% Urea-containing denaturing acrylamide gel. If an inhibitor is added to the reaction mixture prior to the addition of ligase, this would lead to an inhibition of ligation and a corresponding loss of labelled ligated product in the gel. We would then be able to calculate the percentage of inhibition of ligation by estimating the amount of ligated product in the lane with no inhibitor and comparing it with the lanes containing different inhibitor molecules or with the same inhibitor molecule at different concentrations.
Sequence of ligase IV (P49917 whole entry): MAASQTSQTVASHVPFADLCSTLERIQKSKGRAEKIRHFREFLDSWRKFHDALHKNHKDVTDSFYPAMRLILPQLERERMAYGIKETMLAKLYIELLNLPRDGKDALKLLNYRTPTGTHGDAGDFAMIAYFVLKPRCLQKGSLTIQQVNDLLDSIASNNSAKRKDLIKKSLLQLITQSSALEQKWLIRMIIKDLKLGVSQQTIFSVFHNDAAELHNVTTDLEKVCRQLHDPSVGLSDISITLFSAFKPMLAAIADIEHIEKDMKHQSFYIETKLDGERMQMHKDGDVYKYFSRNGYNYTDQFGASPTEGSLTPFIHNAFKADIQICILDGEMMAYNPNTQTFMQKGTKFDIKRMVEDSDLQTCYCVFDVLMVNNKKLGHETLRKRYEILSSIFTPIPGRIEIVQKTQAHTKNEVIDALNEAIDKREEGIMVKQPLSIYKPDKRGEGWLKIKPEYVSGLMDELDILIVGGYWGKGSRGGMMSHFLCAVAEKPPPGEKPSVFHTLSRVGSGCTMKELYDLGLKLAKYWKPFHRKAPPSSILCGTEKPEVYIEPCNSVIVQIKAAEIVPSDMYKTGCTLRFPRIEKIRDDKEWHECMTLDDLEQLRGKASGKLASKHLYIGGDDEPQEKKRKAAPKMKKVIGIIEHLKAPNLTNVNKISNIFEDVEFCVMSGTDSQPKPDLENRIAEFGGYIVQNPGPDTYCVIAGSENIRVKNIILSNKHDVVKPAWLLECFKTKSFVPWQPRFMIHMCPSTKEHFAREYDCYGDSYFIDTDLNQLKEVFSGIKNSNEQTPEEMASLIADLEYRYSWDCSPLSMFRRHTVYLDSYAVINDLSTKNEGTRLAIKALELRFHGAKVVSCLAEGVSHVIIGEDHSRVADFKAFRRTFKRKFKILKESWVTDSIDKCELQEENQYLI
Sequence of ligase IV (Q13426 whole entry partner): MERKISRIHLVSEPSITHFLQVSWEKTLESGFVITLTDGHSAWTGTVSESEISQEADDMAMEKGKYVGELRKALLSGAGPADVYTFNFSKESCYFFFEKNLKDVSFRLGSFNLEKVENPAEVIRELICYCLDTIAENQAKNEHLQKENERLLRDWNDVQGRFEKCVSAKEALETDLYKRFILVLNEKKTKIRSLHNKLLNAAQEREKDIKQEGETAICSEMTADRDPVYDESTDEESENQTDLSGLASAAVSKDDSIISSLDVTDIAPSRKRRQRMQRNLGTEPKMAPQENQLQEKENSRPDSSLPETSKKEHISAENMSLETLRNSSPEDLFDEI

Assay [2] has as its target human ligase I (Homo sapiens, UniProt P18858). Nature of the assay: Ligation assay, DNA ligase I. Type of assay: biochemical.
Source text: as §1

Assay [3] concerns HepG2 cells. Nature of the assay: Apoptosis, annexin V/PI staining by flow cytometry. Type of assay: cell-based, human. The conditions noted are these: HepG2, 24 h. Here is the method: Quantitation of apoptotic cells by annexin V staining was carried out according to the manufacturer's instructions. Briefly, cells (5×10^5 cells/well) were seeded in 6 well plates and treated with 5 μM of 8h-8k for 24 h. After incubation, cells were washed with PBS and stained with 1.25 μL of annexin V-FITC and 10 μL of media binding reagent and incubated for 20 min. After that 10 μL of PI was added and samples were analyzed using a flow cytometer. Annexin V-FITC was analyzed using excitation and emission settings of 488 nm and 535 nm (FL-1 channel); PI, 488 nm and 610 nm (FL-2 channel). Debris and clumps were gated out using forward and orthogonal light scatter. Each experiment was repeated two times independently. Results are illustrated in FIG. 1 and the percentage of Annexin-V/PI positive cells increased gradually from 20 to 70% after 24 h of treatment (FIG. 1).
A general note: A flow cytometer gives signals particle by particle.

The test system of assay [4] is HepG2 (hepatocellular carcinoma). Description: MTT assay for cell viability, HepG2. Format: cell-based, human. Here is the method:
(§2) The human cancer cell lines e.g. HepG2 (hepatocellular carcinoma, ATCC® HB-8065™), PC-3 (human prostate cancer cells, ATCC® CRL-1435™), MCF-7 (breast adenocarcinoma, ATCC® […]), and mouse embryo fibroblasts (NIH/3T3, ATCC® CRL-1658™), used in the present study were obtained from the ATCC (American Type Culture Collection, USA and maintained in RPMI 1640 (Roswell Park Memorial Institute, Merck) with 10% FBS (Merck), supplemented with 1% antibiotic and antimycotic solution (Gibco, USA) at 37° C. in a humidified incubator with 5% CO2. All stock solutions of the compounds were prepared in cell culture grade DMSO (dimethyl sulfoxide) and stored at −20° C. Compounds were diluted in culture media prior to use in experiments. Annexin V-FITC apoptosis detection kits were purchased from Calbiochem. MTT dye was procured from Sigma-Aldrich. All the flow cytometry experiments were performed using a FACScan (Becton Dickinson, Mountain View, Calif.) flow cytometer, equipped with a single 488 nm argon laser.
(§3) Cell viability was assessed by MTT assay, which is based on the reduction of MTT by mitochondrial dehydrogenases of viable cells to form a purple formazan product. Briefly, cells (5-6×10^3/well) were plated in 96 well plates. After incubating overnight, the cells were treated with […] different concentrations (100, 50, 20, 10, 5, 2.5, 1.25 μM) in triplicates with the cationic lipidated cordiarimide and intermediates for 48 h. Subsequently, 10 μL of MTT (10 mg/mL) was added to each well and incubated for 3 h. The MTT formazan formed by viable cells was dissolved in 100 μL of DMSO and shaken for 10 min. The absorbance was measured on an ELISA reader. Each test was repeated at least three times. The concentration of the compound which gives the 50% growth inhibition value corresponding to IC50, was calculated using GraphPad prism 5 software. In the present invention we have screened 26 lipidated cordiarimides and the results are described in table 1.
(In general: Tetrazolium assays rely on reduction of a dye to a coloured formazan, in cell work by metabolically active cells.)

The subject of assay [5] is linearized plasmid pUC18 DNA. Nature of the assay: DNA intercalation assay. Type of assay: binding. The conditions noted are these: up to 100 μM, compared to doxorubicin. Here is the method:
Since there are multiple modes of inhibition of ligase activity, we wanted to determine whether 8k inhibited ligation by direct inhibition alone or through other means as well such as DNA intercalation. DNA intercalation assay was performed as described by Furlan et al., Biotechnol. Lett. 2002, 24, 1807-1813. We incubated 100 ng of linearized plasmid pUC18 DNA with increasing concentrations (50, 100, 200 μM) of Doxorubicin (positive control), ampicillin (negative control), and 8k for 30 minutes at 37° C. Reaction products were resolved on a 1% agarose gel at 5.3 V/cm. Gel was visualized by ethidium bromide staining.

The subject of assay [6] is PC-3 (human prostate cancer cells). Description: MTT assay for cell viability, PC-3. Format: cell-based. To be noted: 48 h. Here is the method: as §2, §3
Assay [7] has as its system MCF-7 (breast adenocarcinoma). Description: MTT assay for cell viability, MCF-7. Type of assay: cell-based, human. Here is the method: as §2, §3
For assay [8], the target named is hLig1 (Homo sapiens, UniProt P18858). Nature of the assay: Kinetic analysis of ligation inhibition (Lineweaver-Burk). Type of assay: biochemical. The conditions noted are these: 5 and 10 μM. Here is the method:
We measured the kinetics of hLig1 mediated ligation in the absence are presence of 8k at 5 and 10 μM concentrations and drew Lineweaver-Burk plots (FIG. 6B).

For assay [9], the system named is mouse embryo fibroblasts (NIH/3T3). Nature of the assay: MTT assay for cell viability, NIH/3T3. Type of assay: cell-based. To be noted: NIH3T3, 48 h. Here is the method: as §2, §3
Assay [10] has as its system caspase-3 in HepG2 cells. Nature of the assay: Caspase-3 colorimetric activation assay. Format: cell-based, human. The conditions noted are these: HepG2, 5 and 10 μM, 24 h. Here is the method: The activity of caspase-3 was determined using a caspase-3 colorimetric assay kit (Sigma Aldrich) according to the manufacturer's protocol. Briefly, HepG2 cells (1×10^6 cells/well) were treated with 5 and 10 μM of 8i and 8k for 24 h. The cells were harvested and lysed by addition of lysis buffer. Cell lysates were mixed with colorimetric substrate (Ac-DEVD-pNA) and incubated at 37° C. in the dark for 4 h. The absorbance was measured at 405 nm in an ELISA reader. Caspase-3 activity was expressed as the change of the activity compared to the control (FIG. 3).

Entries after “also recorded” stand apart in the source; their conditions may differ.

The text below walks through data of US10266564B2, “Cationic lipid cordiarimide hybrid compounds and a process for preparation thereof” (COUNCIL OF SCIENTIFIC & INDUSTRIAL RESEARCH, priority 2014, dated 2019).

Usually inhibition stands for the change of the read-out against control, counted positive when it falls. A lower inhibition goes with a response near the control. Broadly, the IC50 is the point on the concentration scale where inhibition reaches its midpoint.

Sequence of human ligase I (P18858 whole entry): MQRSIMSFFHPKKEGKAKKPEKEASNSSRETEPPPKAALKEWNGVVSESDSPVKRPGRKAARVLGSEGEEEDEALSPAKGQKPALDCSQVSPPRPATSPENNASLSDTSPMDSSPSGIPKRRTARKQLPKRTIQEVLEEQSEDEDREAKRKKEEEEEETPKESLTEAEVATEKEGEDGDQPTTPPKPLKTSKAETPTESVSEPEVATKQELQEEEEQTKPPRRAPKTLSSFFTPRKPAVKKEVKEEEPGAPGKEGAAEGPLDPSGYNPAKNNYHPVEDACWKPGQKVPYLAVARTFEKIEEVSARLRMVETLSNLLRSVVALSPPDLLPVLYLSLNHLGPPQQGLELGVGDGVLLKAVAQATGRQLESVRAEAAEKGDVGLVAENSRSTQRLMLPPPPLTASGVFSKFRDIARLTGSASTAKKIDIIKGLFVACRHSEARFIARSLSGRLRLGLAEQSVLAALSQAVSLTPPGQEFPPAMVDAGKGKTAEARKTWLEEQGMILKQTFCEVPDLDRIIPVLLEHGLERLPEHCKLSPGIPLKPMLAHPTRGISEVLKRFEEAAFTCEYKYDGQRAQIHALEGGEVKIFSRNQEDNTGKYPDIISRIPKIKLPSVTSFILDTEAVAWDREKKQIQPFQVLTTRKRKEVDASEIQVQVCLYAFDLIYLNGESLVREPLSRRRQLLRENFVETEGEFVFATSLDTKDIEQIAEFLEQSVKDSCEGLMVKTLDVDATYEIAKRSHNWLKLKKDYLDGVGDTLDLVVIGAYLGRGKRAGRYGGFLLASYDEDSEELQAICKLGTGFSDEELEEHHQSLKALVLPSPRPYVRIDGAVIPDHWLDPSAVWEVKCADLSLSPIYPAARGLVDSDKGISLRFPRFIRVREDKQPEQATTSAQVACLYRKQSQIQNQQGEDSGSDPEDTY
Sequence of hLig1 (P18858 whole entry): as above

For `CCCCCCCCCCCC[N+](C)(CCCCCCCCCCCC)CC(=O)NC1CCC(=O)N(CC(=O)c2ccccc2)C1=O` (stereo not shown) [Compound 8k, {[2,6-Dioxo-1-(2-oxo-2-phenyl-ethyl)-piperidin-3-ylcarbamoyl]-methyl}-Didodecyl-methyl-ammonium iodide], the “inhibition of ligase IV” value in assay [1] (5 μM) is “No appreciable inhibition”. In [1] (even at higher concentrations), the “effect on ligase IV activity” value is listed as “no effect”. Moreover, in [2] (1 μM), the inhibition at 1 µM was roughly 50%. For the same compound, the “inhibition of ligase I activity” value in [2] (10 μM) is “complete inhibition”. In addition, the “DNA ligase I / ligation inhibition (in words)” value in [2] (screening, FIG. 4 and FIG. 7) is “most prolific inhibitor of ligation; also recorded: inhibition of DNA ligase I activity; also recorded: showed inhibition of DNA ligation”. Besides, the “apoptosis induction (in words)” value in assay [3] is on record as “induced significant amount of apoptosis”. Further, the IC50 in assay [4] (48 h) was 1.87 µM; in [4] (Homo sapiens, HepG2, 48 h), 1.8 µM; in assay [6], 5.61 µM; in [6] (Homo sapiens), 5.6 µM; in [7] (48 h), greater than 20 µM; in assay [7] (Homo sapiens, MCF7, 48 h), 26.3 µM. In [9], this compound came in with a 50% inhibitory concentration (IC50) greater than 20 µM. For the same compound, the DNA intercalation entry in assay [5] is given as “no appreciable intercalation”. In assay [8], the “mode of inhibition by enzyme kinetics” value is “un-competitively”. For the same compound, the caspase-3 activation result in assay [10] is reported as “activated the caspase-3 in HepG2 cells dose dependently; also recorded: activated the casepase-3 in HepG2 cells dose dependently”.
